Literature values in US20250381145A1, “COMBINATION OF SGLT2 INHIBITORS AND MINERALCORTICOID RECEPTOR MODULATORS FOR USE IN TREATMENT OF CARDIORENAL DISEASES” (ASTRAZENECA AB, priority 2022, published 2025).

Compound | solubility (BCS characterisation)
CNC(=O)C[C@H]1COc2cc(F)ccc2N1C(=O)c1ccc2c(c1)NC(=O)CO2 [AZD9977, balcinrenone] | low
CCOc1ccc(Cc2cc([C@@H]3O[C@H](CO)[C@@H](O)[C@H](O)[C@H]3O)ccc2Cl)cc1 [dapagliflozin] | high
